Reference: US20030203969A1, “Pharmaceutically active aromatic guanylhydrazones” (priority 2000, published 2003)
pIC50: −log10 of the molar value.

How the values were obtained:
[1] = tested on: E. Coli XL-1 blue strain; experiment: Growth assay for E. coli (optical density at 610 nm); format: cell-based; conditions: LB medium, 37° C., one day; read-out: IC50 (μM) E. coli proliferation
Procedure: We used the E. Coli XL-1 blue strain (Stratagene) for the investigation of antibacterial activity. During this experiments LB medium was used for E. coil growth. LB was prepared as follows: 1% trypton (weight/volume), 0.5% Yeast extract (weight/volume), and 1.5% NaCl (weight/volume) were dissolved in water and autoclaved. The media contained the inhibitor at 100 μM, 10 μM, or 1 μM concentrations, respectively.
The assay was performed as follows: bacteria were seeded to 96-well plates containing the respective inhibitors. The bacteria-containing plates were incubated at 37° C. for one day. After incubation time, E. coli growth was assayed by the measurement of the optical density at 610 nm wavelength.

[2] = tested on: VZV strain ELLEN; experiment: VZV plaque reduction assay in MRC-5 cells; format: cell-based, Varicella-zoster virus
Procedure: MRC-5 (human embryonic lung fibroblast) cells (ATCC Cat. No. CCL-171) are seeded in 24 well plates using Eagle's Minimum Essential Medium (EMEM) supplemented with 10% heat-inactivated fetal bovine serum (FBS), L-glutamine, sodium pyruvate, non-essential amino acids, penicillin, and streptomycin. The plates are then incubated overnight at 37° C. and 5% CO2. The following day, media is aspirated and approximately 50-100 pfu (plaque forming units) of VZV strain ELLEN is added to the wells of each plate in a volume of 200 μl of assay media (EMEM supplemented with 5% heat-inactivated FBS, L-glutamine, sodium pyruvate, non-essential amino acids, penicillin, and streptomycin). The remaining wells of each plate serve as cellular control wells and receive 200 μl of assay media without virus. The virus is allowed to adsorb onto the cells for 1 hr at 37° C. and 5% CO2. Two dilutions of each test drug are prepared by diluting them in assay media containing 0.5% Methylcellulose. After the incubation period, 1 ml of each drug dilution is added to triplicate wells of a plate. Assay media (without drug) containing 0.5% Methylcellulose is added to the three cell control wells and to three virus control wells on each plate. The plates are incubated for 9-12 days to allow for plaque formation. […]

[3] = tested on: PI-resistant HIV-1; experiment: Inhibition of multiple anti-retroviral drug resistant HIV-1 strains: PI-resistant; format: cell-based
Procedure: In addition, various different “types” of multiple anti-retroviral drug resistant HIV-1 strains were also tested: […]

[4] = tested on: macrophage-tropic HIV-1Ba-L strain; experiment: Inhibition of macrophage-tropic HIV-1 Ba-L replication in de novo infected PM1 cells (p24 antigen); format: cell-based; conditions: d10
Procedure: HIV replication was measured either by p24 HIV Antigen Capture Assay Kit (ELISA; HIVAG-1 Monoclonal kit BIA011; Abbott) following the manufacturer's recommendation, or by using the Quantiplex HIV-1 RNA 3.0 Assay (bDNA) system (Chiron Diagnostics). The latter assay is a signal amplification nucleic acid probe assay (employing a sandwich nucleic acid hybridization procedure) for direct quantitation of HIV RNA in human plasma. There, in brief, HIV-1 is first concentrated from plasma by centrifugation. After release of genomic HIV-1 RNA from the virions, the RNA is captured to a microwell by a set of specific, synthetic oligonucleotide capture probes. A set of target probes hybridize to both the viral RNA and the pre-amplifier probes. The capture probes, comprised of 17 individual capture extenders, and the target probes, comprised of 81 individual target extenders, bind to different regions of the pol gene of the viral RNA. The amplifier probe hybridizes to the pre-amplifier forming a branched DNA (bDNA) complex. Then, multiple copies of an alkaline phosphatase labeled probe are hybridized to this immobilized bDNA complex. Detection is achieved by incubating the entire complex with a chemoluminescent substrate. Light emission is directly proportional to the amount of HIV-1 RNA present in each sample, and results are recorded as relative light units by an appropriate analyzer.
Jurkat cells (species: human T-cell leukemia; special characteristics: cells are permissive for growth of T-cell tropic HIV strains; source:ATCC Cat.No. TIB 152) or PM1 cells (species: clonal derivative of human HUT 78 cells; special characteristics: cells are permissive for growth of macrophage-tropic and T-cell tropic HIV strains; source: Dr. Marvin Reitz, courtesy of the NIH AIDS Research and Reference Reagent Program Cat.No. 3038) were stimulated with Phytohemagglutinin (PHA-P, Product No. L9132 from Sigma) in a concentration of 2 μg/ml (1.5×10^6 cells/ml) and Hexadimethrine Bromide (Polybrene, Product No. H9268 from Sigma) in a concentration of 2 μg/ml (1.5×10^6 cells/ml) in RPMI 1640 medium containing 10% fetal calf serum (FCS, Pansystems GmbH) and antibiotics for 3 days.
For HIV-1 infection, 5×10^7 cells were resuspended in 500 μl culture medium without test drugs and incubated in a 50 ml blue-cap-tube at 37° C. for 5 hrs with HIV-1 high titer viral stocks. Jurkat cells were infected with the T-cell tropic strain HIV-1 NL4-3, PM1 cells with the macrophage tropic strain HIV-1 Ba-L (both from the NIH AIDS Research and Reference Reagent Program). After infection, cells were washed twice with PBS without Ca^2+ and Mg^2+ to avoid false positive p24 antigen determination. Cells were resuspended, and identical aliquots (1×10^6/ml) of infected cells were further cultured in 10 ml medium with test drugs at various concentrations, or in medium with DMSO as control for calculation of the inhibition of virus replication (in %].
Culture medium was changed and cells were split at days 3 and 7 of the experiments. Viability of the cells (Trypan-blue staining), cell counts and p24 antigen levels were determined at days 3, 7 and 10 of the experiments. No significant differences in cell viability were observed (˜85-90% living cells).
At day 10 of infection, the HIV strains replicated vigorously in untreated cultures. Numbers describe percent inhibition of HIV replication as compared to control experiments.

CC(=NNC(=N)N)c1cc(NC(=O)CCCCCCCCC(=O)Nc2cc(C(C)=NNC(=N)N)cc(C(C)=NNC(=N)N)c2)cc(C(C)=NNC(=N)N)c1 [Compound 4, N,N′-bis (3,5-diacetylphenyl) decane diamide tetrakis (amidinohydrazone)]
IC50 [1]: 1 µM | pIC50 ([2]; MRC-5 cells newly infected with VZV): 5.33 | Comments ([2]; VZV, MRC-5 cells): Significant activity | [%] inhibition of virus replication ([3]; PI-resistant HIV-1, 0.5 μM): 50% | [%] inhibition of virus replication ([3]; PI-resistant HIV-1, 1.0 μM): 95% | percent inhibition of HIV replication as compared to control ([4]; 0.5 μM): 82% | percent inhibition of HIV replication as compared to control ([4]; 1.0 μM): 73%
